{"source": "patent US11027155B2", "about": "“Method for prevention and treatment of diabetic kidney disease” (priority 2019, dated 2021)", "key": {"diabetic patients": {"tested_on": "diabetic patients", "details": "cited from earlier work"}, "eNOS−/−/db/db mice [1]": {"tested_on": "eNOS−/−/db/db mice", "experiment": "Comparison of kidney morphology", "format": "in vivo", "details": "diabetic mice fed 4-MU diet vs control diet", "text": "(§1) The present disclosure describes a new use of HA synthesis inhibitors for the treatment of Diabetic Kidney Disease. To study the effects of HA inhibitors on the development of DKD, our experiments were done by providing the test drug (4-Methylumbelliferone, 4-MU) in the food to one of the best available murine models of diabetic nephropathy, the diabetic and moderately hypertensive endothelial nitric oxide synthase/leptin receptor deficient (eNOS−/−/db/db) mice (Mohan S., et al. Laboratory Investigation. 2008, vol. 88, p. 515-528; Betz B., at al. Nephron Exp Nephrol. 2014, vol. 126, p. 191-195). At 9 weeks old, the double homozygous mutant eNOS/db mice were separated in two similar groups regarding sex, body weight, non-fasting plasma glucose concentrations, and consanguinity. Experimental animals were fed at libitum identical artificial diets formulated by Envigo-Teklad, containing or not 5% of 4-MU sodium salt (Sigma, cat. no. M1508) until 19 weeks of age. Both diets provided 3.5 Kcal/g and contained by weight: 17.7% of protein, 53.7% of carbohydrate, and 7.2% of fat. Diets were kept sealed under vacuum at −20° C. protected from light. Every week, the old food was removed, and animals were provided fresh food pellets."}, "plasma glucose": {"tested_on": "plasma glucose", "experiment": "Non-fasting plasma glucose (commercial kit EIAGLUC)", "format": "in vivo, mice", "details": "4-MU-treated vs control, end of the experiments (18-week-old)", "text": "At 9 weeks old, the double homozygous mutant eNOS/db mice were separated in two similar groups regarding sex, body weight, non-fasting plasma glucose concentrations, and consanguinity. Experimental animals were fed at libitum identical artificial diets formulated by Envigo-Teklad, containing or not 5% of 4-MU sodium salt (Sigma, cat. no. M1508) until 19 weeks of age. Both diets provided 3.5 Kcal/g and contained by weight: 17.7% of protein, 53.7% of carbohydrate, and 7.2% of fat. Diets were kept sealed under vacuum at -20° C. protected from light. Every week, the old food was removed, and animals were provided fresh food pellets. Plasma glucose levels were measured using a commercial kit ([…], Invitrogen). […] This fact remarks an important difference between our invention and the use of 4-MU to treat autoimmune diabetes."}, "[2]": {"tested_on": "LPS-Induced Lung Inflammation", "details": "mice; cited from earlier work"}, "hyaluronan": {"tested_on": "hyaluronan", "experiment": "Serum hyaluronan content in 4-MU fed diabetic nephropathy mice", "format": "in vivo", "details": "4-MU fed animals, 5% 4-MU sodium salt in diet, after 3 weeks of treatment", "text": "as §1, with “pellets. […] We detected in 4-MU fed animals a reduction of serum hyaluronan content of about 30% after 3 weeks of treatment.” for “pellets.”"}, "eNOS−/−/db/db mice [3]": {"tested_on": "eNOS−/−/db/db mice", "experiment": "Kidney histopathology (H&E, PAS), semi-quantitative glomerular index", "format": "in vivo", "text": "The present disclosure describes a new use of HA synthesis inhibitors for the treatment of Diabetic Kidney Disease. To study the effects of HA inhibitors on the development of DKD, our experiments were done by providing the test drug (4-Methylumbelliferone, 4-MU) in the food to one of the best available murine models of diabetic nephropathy, the diabetic and moderately hypertensive endothelial nitric oxide synthase/leptin receptor deficient (eNOS−/−/db/db) mice (Mohan S., et al. Laboratory Investigation. 2008, vol. 88, p. 515-528; Betz B., at al. Nephron Exp Nephrol. 2014, vol. 126, p. 191-195). At 9 weeks old, the double homozygous mutant eNOS/db mice were separated in two similar groups regarding sex, body weight, non-fasting plasma glucose concentrations, and consanguinity. Experimental animals were fed at libitum identical artificial diets formulated by Envigo-Teklad, containing or not 5% of 4-MU sodium salt (Sigma, cat. no. M1508) until 19 weeks of age. Both diets provided 3.5 Kcal/g and contained by weight: 17.7% of protein, 53.7% of carbohydrate, and 7.2% of fat. Diets were kept sealed under vacuum at −20° C. protected from light. Every week, the old food was removed, and animals were provided fresh food pellets. Finally, for histopathology analysis kidneys were collected from 4-MU-treated and control mice at the end of the experiment. Organs were fixed in 10% NB formalin for 44 hours, embedded in paraffin, and 3 urn sections were stained with Hematoxylin and Eosin (H&E) or Periodic acid—Schiff (PAS), before being examined following Zhao H J et al. (Zhao H. J., et al. J Am Soc Nephrol. 2006, vol. 17, p. 2664-2669). A semi-quantitative index was used to evaluate the degree of glomerular mesangial expansion and sclerosis. 50 glomeruli on a single section (25 from each kidney) were scored from 0 to 4, where 0 represents no lesions and 1, 2, 3, and 4 represent mesangial matrix expansion or sclerosis involving less than or equal to 25, 26-50, 51-75, or >75% of the glomerular tuft area, respectively. End stage sclerotic glomeruli (glomerulosclerosis) were counted, as well as the number of glomeruli that contained nodules, and the percentage of affected glomeruli within the 50 analyzed. Histopathology staining and analyses were done by an independent service and the specialists were blind regarding the nature of the samples."}, "[4]": {"tested_on": "aortic smooth muscle cell (aSMC)", "details": "in vitro; cited from earlier work"}, "[5]": {"experiment": "Body weight and appearance monitored weekly in eNOS/db mice", "format": "in vivo", "text": "The present disclosure describes a new use of HA synthesis inhibitors for the treatment of Diabetic Kidney Disease. To study the effects of HA inhibitors on the development of DKD, our experiments were done by providing the test drug (4-Methylumbelliferone, 4-MU) in the food to one of the best available murine models of diabetic nephropathy, the diabetic and moderately hypertensive endothelial nitric oxide synthase/leptin receptor deficient (eNOS−/−/db/db) mice (Mohan S., et al. Laboratory Investigation. 2008, vol. 88, p. 515-528; Betz B., at al. Nephron Exp Nephrol. 2014, vol. 126, p. 191-195).\n(§2) At 9 weeks old, the double homozygous mutant eNOS/db mice were separated in two similar groups regarding sex, body weight, non-fasting plasma glucose concentrations, and consanguinity. Experimental animals were fed at libitum identical artificial diets formulated by Envigo-Teklad, containing or not 5% of 4-MU sodium salt (Sigma, cat. no. M1508) until 19 weeks of age. Both diets provided 3.5 Kcal/g and contained by weight: 17.7% of protein, 53.7% of carbohydrate, and 7.2% of fat. Diets were kept sealed under vacuum at −20° C. protected from light. Every week, the old food was removed, and animals were provided fresh food pellets.\nThe weight and appearance of the animals was monitored weekly."}, "type 1 diabetes": {"tested_on": "type 1 diabetes", "details": "after the onset of autoimmune insulitis, two mice models; cited from earlier work"}, "HA synthesis": {"tested_on": "HA synthesis", "details": "cited from earlier work"}, "[6]": {"tested_on": "renal ischemia-reperfusion injury (IRI)", "details": "cited from earlier work"}, "[7]": {"details": "cited from earlier work"}, "C-Reactive Protein": {"tested_on": "C-Reactive Protein", "experiment": "C-Reactive Protein immunoassay in serum", "format": "in vivo, mice", "details": "4 weeks after being fed with the special diets", "text": "as §2, with “pellets. […] C—RP is considering the gold standard marker for inflammation and the lack of differences in this protein between our experimental mice points out that 4-MU is not affecting the development of DKD by crucially changing the inflammatory responses in our diabetic animals but for other mechanism of action.” for “pellets.”"}, "malignant tumor cells": {"tested_on": "malignant tumor cells", "details": "in vitro and animal models of liver, breast, prostate, pancreatic, and renal carcinomas; cited from earlier work"}, "eNOS−/−/db/db mice [8]": {"tested_on": "eNOS−/−/db/db mice", "experiment": "Glomerular Filtration Rate by single bolus FITC-inulin in conscious mice", "format": "in vivo", "text": "as §1, with “[…] In our experiments, GFR” for “Diets”, “determined before (week 8)” for “kept sealed under vacuum at −20° C. protected from light. Every week, the old food was removed,”, “after 10 week of treatments (week 18) by a single bolus injection of fluorescein isothiocyanate-(FITC) labeled inulin in conscious mice (Rieg T. J Vis Exp. 2013, May 10: e50330, doi: 10.3791/50330). […]” for “animals were provided fresh food pellets.”"}, "[9]": {"details": "4-MU-treated vs control, end of the experiment"}}, "note": "“Also recorded” adds a separate entry of the source.", "data": [{"compound": "Cc1ccc([C@@H]2O[C@H](CO)[C@@H](O)[C@H](O)[C@H]2O)cc1Cc1ccc(-c2ccc(F)cc2)s1", "note": "[canagliflozin]", "values": [{"measurement": "vascular and renal effects", "setting": "diabetic patients", "value": "vascular and renal protective effects"}]}, {"compound": "Cc1cc(=O)oc2cc(O)ccc12", "note": "[4-MU, 4-Methylumbelliferone]", "values": [{"measurement": "kidney morphology", "setting": "eNOS−/−/db/db mice [1]", "value": "abnormalities are less pronounced; also recorded: less advanced degree of DKD"}, {"measurement": "non-fasting plasma glucose levels", "setting": "plasma glucose", "value": "No significant difference; also recorded: did not affect"}, {"measurement": "LPS-Induced Lung Inflammation", "setting": "[2]", "value": "can suppress"}, {"measurement": "reduction of serum hyaluronan content", "setting": "hyaluronan", "value": "about 30%"}, {"measurement": "signs of nephritis and tubulitis", "setting": "eNOS−/−/db/db mice [3]; 4-MU-treated mice, unlike control", "value": "did not found signs"}, {"measurement": "glomerular injury index", "setting": "eNOS−/−/db/db mice [3]; [9]", "value": "significant lower"}, {"measurement": "nodular glomerulosclerosis", "setting": "eNOS−/−/db/db mice [3]; [9]", "value": "lower"}, {"measurement": "degree of kidney injuries (histopathology summary)", "setting": "eNOS−/−/db/db mice [3]; FIG. 8", "value": "lower degree of kidney injuries"}, {"measurement": "aSMC apoptosis", "setting": "[4]", "value": "induced apoptosis"}, {"measurement": "aSMC proliferation, migration", "setting": "[4]", "value": "blocked"}, {"measurement": "overall health and survival", "setting": "[5]; DKD animals", "value": "impacted their overall health and survival"}, {"measurement": "body weight over time vs control diet", "setting": "[5]; eNOS/db mice, 4-MU diet from 9 to 19 weeks of age", "value": "keep their body weight for a longer period; also recorded: kept their body weight longer"}, {"measurement": "weight loss (final weight divided by maximum reached weight) vs control", "setting": "[5]; final stages of the disease, end of the experiments", "value": "significant difference in weight loss; also recorded: control diet lost significantly more weight than the mice treated with 4-MU"}, {"measurement": "progression to type 1 diabetes", "setting": "type 1 diabetes", "value": "halted progression to type 1 diabetes"}, {"measurement": "HA synthesis", "setting": "HA synthesis", "value": "selectively inhibited"}, {"measurement": "hyaluronan content in kidneys", "setting": "[6]; 4-MU treatment", "value": "can reduce"}, {"measurement": "renal ischemia-reperfusion injury after kidney transplants", "setting": "[6]; inhibition pre and post-operatively", "value": "protective"}, {"measurement": "metabolism in vivo to 4-MUG and 4-MUS", "setting": "[7]", "value": "rapidly metabolized"}, {"measurement": "C-RP values in serum, treated vs untreated", "setting": "C-Reactive Protein", "value": "No significant difference; also recorded: not significant differences"}, {"measurement": "cytostatic / anti-metastatic effect on malignant tumor cells", "setting": "malignant tumor cells", "value": "useful as cytostatic or in preventing metastasis"}, {"measurement": "GFR, initial (week 7-8) vs final (week 18) in treated mice", "setting": "eNOS−/−/db/db mice [8]; after 10 week of treatments", "value": "No significant difference; also recorded: kept their GFR values unchanged"}, {"measurement": "progression of DKD", "setting": "eNOS−/−/db/db mice [8]; from GFR results", "value": "significantly delayed the progression of DKD"}]}]}
